Assay results published in ChEMBL document CHEMBL4304741, “Modification and Biological Evaluation of a Series of 1,5-Diaryl-1,2,4-triazole Compounds as Novel Agents against Pancreatic Cancer Metastasis through Targeting Myoferlin” (J Med Chem, 2019).
Calls of active or inactive are those of the source. No cut-off for these calls is given here.

Experiments:
[1] = tested on: PANC-1; experiment: Antimigratory activity against human PANC1 cells measured after 18 hrs in presence of mitomycin C using crystal violet staining by inverted microscopy-based transwell assay; assay type: functional, cell-based; details: PANC-1, 18 h
[2] = Toxicity in Balb/c nude mouse xenografted with PANC1 cells assessed as pathological changes in spleen at 25 mg/kg/day, ip by H and E staining-based microscopic analysis; assay type: organism-based; details: in vivo
[3] = Toxicity in Balb/c nude mouse xenografted with PANC1 cells assessed as pathological changes in lung at 25 mg/kg/day, ip by H and E staining-based microscopic analysis; assay type: organism-based; details: in vivo
[4] = Toxicity in Balb/c nude mouse xenografted with PANC1 cells assessed as pathological changes in heart at 25 mg/kg/day, ip by H and E staining-based microscopic analysis; assay type: organism-based; details: in vivo
[5] = Toxicity in Balb/c nude mouse xenografted with PANC1 cells assessed as body weight loss at 25 mg/kg/day, ip; assay type: organism-based; details: in vivo
[6] = tested on: PANC-1; experiment: Antimetastatic activity against human PANC1 cells harboring luciferase reporter gene xenografted in Balb/c nude mouse assessed as mouse survival at 25 mg/kg/day, ip (reference value: 25%); assay type: functional; details: PANC-1, ip
[7] = Toxicity in Balb/c nude mouse xenografted with PANC1 cells assessed as pathological changes in liver at 25 mg/kg/day, ip by H and E staining-based microscopic analysis; assay type: organism-based; details: in vivo
[8] = tested on: PANC-1; experiment: Antimetastatic activity against human PANC1 cells harboring luciferase reporter gene xenografted in Balb/c nude mouse at 25 mg/kg/day, ip measured every 10 days by bioluminescence imaging analysis; assay type: functional, organism-based
[9] = Toxicity in Balb/c nude mouse xenografted with PANC1 cells assessed as pathological changes in kidney at 25 mg/kg/day, ip by H and E staining-based microscopic analysis; assay type: organism-based; details: in vivo
[10] = tested on: PANC-1; experiment: Antiinvasive activity against human PANC1 cells measured after 18 hrs in presence of mitomycin C using crystal violet staining by inverted microscopy-based matrigel coated transwell assay; assay type: functional, cell-based; details: PANC-1, 18 h
[11] = tested on: PANC-1; experiment: Antimigratory activity against MYOF-knockout human PANC1 cells measured after 18 hrs in presence of mitomycin C using crystal violet staining by inverted microscopy-based transwell assay; assay type: functional, cell-based
[12] = molecular target: T1, Myoferlin (Homo sapiens, UniProt Q9NZM1); experiment: Binding affinity to recombinant human GST-tagged MYOF C2 domain (3445 to 3912 residues) expressed in Escherichia coli BL21 (DE3) at 0.03125 to 0.5 uM by surface plasmon resonance analysis
T1 sequence (Q9NZM1 whole entry, the tested form may be a part): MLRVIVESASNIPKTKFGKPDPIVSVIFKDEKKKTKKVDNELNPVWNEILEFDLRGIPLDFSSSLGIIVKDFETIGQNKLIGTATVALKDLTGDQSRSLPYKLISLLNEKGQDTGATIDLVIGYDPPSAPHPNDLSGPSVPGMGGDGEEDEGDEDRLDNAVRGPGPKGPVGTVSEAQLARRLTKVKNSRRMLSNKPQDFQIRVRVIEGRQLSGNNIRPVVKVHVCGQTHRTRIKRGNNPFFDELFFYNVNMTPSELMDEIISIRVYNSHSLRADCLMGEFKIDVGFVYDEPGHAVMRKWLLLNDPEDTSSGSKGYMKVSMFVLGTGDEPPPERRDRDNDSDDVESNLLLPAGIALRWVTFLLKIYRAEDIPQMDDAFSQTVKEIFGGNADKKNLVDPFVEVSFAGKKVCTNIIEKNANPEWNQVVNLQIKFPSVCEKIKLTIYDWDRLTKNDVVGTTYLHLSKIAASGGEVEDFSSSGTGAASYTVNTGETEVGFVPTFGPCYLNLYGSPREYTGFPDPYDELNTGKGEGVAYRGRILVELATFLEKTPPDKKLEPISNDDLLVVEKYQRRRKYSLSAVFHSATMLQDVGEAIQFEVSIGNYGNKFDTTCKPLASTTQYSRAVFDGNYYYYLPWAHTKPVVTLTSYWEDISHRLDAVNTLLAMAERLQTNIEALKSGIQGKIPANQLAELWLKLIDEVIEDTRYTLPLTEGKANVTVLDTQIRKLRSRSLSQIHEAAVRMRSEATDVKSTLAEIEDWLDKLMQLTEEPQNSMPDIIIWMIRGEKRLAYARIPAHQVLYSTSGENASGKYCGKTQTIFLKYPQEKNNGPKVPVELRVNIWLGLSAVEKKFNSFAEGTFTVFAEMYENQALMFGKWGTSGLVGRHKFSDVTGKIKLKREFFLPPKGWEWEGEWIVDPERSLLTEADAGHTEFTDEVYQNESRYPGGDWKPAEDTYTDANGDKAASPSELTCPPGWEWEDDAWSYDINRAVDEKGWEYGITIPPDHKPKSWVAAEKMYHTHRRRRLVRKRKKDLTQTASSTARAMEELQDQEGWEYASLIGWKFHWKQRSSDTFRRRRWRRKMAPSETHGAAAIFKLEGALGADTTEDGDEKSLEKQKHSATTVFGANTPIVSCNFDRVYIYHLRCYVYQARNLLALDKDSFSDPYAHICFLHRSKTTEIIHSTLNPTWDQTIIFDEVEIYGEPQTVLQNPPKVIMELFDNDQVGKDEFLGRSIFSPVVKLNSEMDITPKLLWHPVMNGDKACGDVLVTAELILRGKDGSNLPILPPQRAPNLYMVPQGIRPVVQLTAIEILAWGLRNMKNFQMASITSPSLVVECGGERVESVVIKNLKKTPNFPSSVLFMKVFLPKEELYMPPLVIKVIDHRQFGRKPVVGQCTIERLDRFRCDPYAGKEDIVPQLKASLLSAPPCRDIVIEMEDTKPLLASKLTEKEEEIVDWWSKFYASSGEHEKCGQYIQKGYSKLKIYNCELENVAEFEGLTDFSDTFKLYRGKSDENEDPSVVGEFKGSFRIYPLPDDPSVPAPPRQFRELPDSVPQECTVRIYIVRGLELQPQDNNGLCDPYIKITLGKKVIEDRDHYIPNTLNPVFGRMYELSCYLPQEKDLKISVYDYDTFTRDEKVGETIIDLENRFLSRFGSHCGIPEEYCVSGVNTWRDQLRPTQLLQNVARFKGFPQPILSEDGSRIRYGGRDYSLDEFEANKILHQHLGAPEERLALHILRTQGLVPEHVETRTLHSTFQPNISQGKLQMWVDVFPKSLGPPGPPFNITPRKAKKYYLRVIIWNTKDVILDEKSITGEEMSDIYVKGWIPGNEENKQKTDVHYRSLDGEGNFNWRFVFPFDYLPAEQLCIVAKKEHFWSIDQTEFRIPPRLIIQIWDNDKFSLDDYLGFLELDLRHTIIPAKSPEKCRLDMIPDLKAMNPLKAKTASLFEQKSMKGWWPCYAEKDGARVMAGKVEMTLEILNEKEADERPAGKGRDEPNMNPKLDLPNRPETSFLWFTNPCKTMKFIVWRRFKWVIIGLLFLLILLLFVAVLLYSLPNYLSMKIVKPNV

[13] = molecular target: T1, Myoferlin; experiment: Binding affinity to recombinant human GST-tagged MYOF C2 domain (3445 to 3912 residues) expressed in Escherichia coli BL21 (DE3) at 0.3125 to 10 uM by surface plasmon resonance analysis

| Structure (SMILES) | IC50 [1] [nM] | other results |
| --- | --- | --- |
| CCc1nc(-c2cccc(C(=O)NCCCCc3ccccc3)c2)n(-c2ccc(OC)cc2)n1 | 420 |  |
| CCc1nc(-c2ccc(OC)nc2)n(-c2cccc(C(=O)NCCCCc3ccccc3)c2)n1 | 810 |  |
| Nc1ccn([C@@H]2O[C@H](CO)[C@@H](O)C2(F)F)c(=O)n1 [GEMCITABINE] | 160 | Activity [2]: Non-Toxic; Activity [3]: Non-Toxic; Activity [4]: Non-Toxic; Activity [5]: Non-Toxic; survival at 25 mg/kg/day [6]: 60%; Activity [7]: Non-Toxic; Activity [8]: Active; Activity [9]: Non-Toxic; IC50 [10]: 160 nM |
| CCOc1ccc(-c2nc(CC)nn2-c2cccc(C(=O)NCCCCc3ccccc3)c2)cc1 | 16800 |  |
| COc1ccc(-c2ncnn2-c2cccc(C(=O)NCCCCc3ccccc3)c2)cc1 | > 20000 |  |
| COc1ccc(-c2nc(C3CC3)nn2-c2cccc(C(=O)NCCCCc3ccccc3)c2)cc1 | 7680 |  |
| COc1ccc(-c2nc(C)nn2-c2cccc(C(=O)NCCc3ccncc3)c2)cc1 | > 20000 |  |
| COc1ccc(-c2nc(C)nn2-c2cccc(C(=O)NCCc3cccs3)c2)cc1 | > 20000 |  |
| COc1ccc(-c2nc(C)nn2-c2cccc(C(=O)NCCCCCc3ccccc3)c2)cc1 | > 20000 |  |
| COc1ccc(-c2nc(C)nn2-c2cccc(C(=O)NCCc3ccc(Br)cc3)c2)cc1 | 3240 | IC50 [10]: 2960 nM |
| CCc1nc(-c2cnc(OC)cn2)n(-c2cccc(C(=O)NCCCCc3ccccc3)c2)n1 | 310 |  |
| COc1ccc(-n2nc(C)nc2-c2cccc(C(=O)NCCCCc3ccccc3)c2)cc1 | 1680 |  |
| CC(=O)O[C@@]12CO[C@@H]1C[C@H](O)[C@@]1(C)C(=O)[C@H](O)C3=C(C)[C@@H](OC(=O)[C@H](O)[C@@H](NC(=O)OC(C)(C)C)c4ccccc4)C[C@@](O)([C@@H](OC(=O)c4ccccc4)[C@H]21)C3(C)C |  | Activity [11]: Active |
| COc1ccccc1N1C(=O)CSC1c1cccc(C(=O)NCCc2ccc(Br)cc2)c1 (stereo not drawn) | 390 | IC50 [10]: 540 nM |
| CCc1nc(-c2ccc(O)cc2)n(-c2cccc(C(=O)NCCCCc3ccccc3)c2)n1 | 220 |  |
| COc1ccc(-c2nc(C)nn2-c2cccc(C(=O)NCCc3ccccn3)c2)cc1 | > 20000 |  |
| COc1ccccc1-c1nc(C)nn1-c1cccc(C(=O)NCCc2ccc(Br)cc2)c1 | 7920 | IC50 [10]: 10900 nM |

| Structure (SMILES) | IC50 [1] [nM] | other results |
| --- | --- | --- |
| COc1ccc(-c2nc(C)nn2-c2cccc(C(=O)NCCCc3ccc(Cl)cc3)c2)cc1 | > 20000 |  |
| COc1ccc(-c2nc(C)nn2-c2cccc(C(=O)NCCCOc3ccccc3)c2)cc1 | 3120 | IC50 [10]: 3560 nM |
| COc1ccc(-c2nc(C)nn2-c2cccc(C(=O)NCCCCc3ccc(Br)cc3)c2)cc1 | 3020 |  |
| CCc1nc(-c2ccc(OC)cc2)n(-c2cccc(C(=O)NCCCCc3ccccc3)c2)n1 | 140 | Activity [12]: Active; IC50 [10]: 180 nM |
| CCc1nc(-c2ccc(OC(F)(F)F)cc2)n(-c2cccc(C(=O)NCCCCc3ccccc3)c2)n1 | 640 |  |
| CCc1nc(-c2cccc(C(=O)NCCCCc3ccccc3)n2)n(-c2ccc(OC)cc2)n1 | 9640 |  |
| COc1ccccc1-c1nc(C)nn1-c1cccc(C(=O)NCCc2ccc(Cl)cc2)c1 | > 20000 | IC50 [10]: 27600 nM |
| CCCCc1nc(-c2ccc(OC)cc2)n(-c2cccc(C(=O)NCCCCc3ccccc3)c2)n1 | 16800 |  |
| COc1ccc(-c2nc(C)nn2-c2cccc(C(=O)NCCOCc3ccccc3)c2)cc1 | 9340 |  |
| COc1ccc(-c2nc(C(C)C)nn2-c2cccc(C(=O)NCCCCc3ccccc3)c2)cc1 | > 20000 |  |
| COc1ccc(-c2nc(C)nn2-c2cccc(C(=O)NCCCCc3ccccc3)c2)cc1 | 630 | Activity [13]: Active |
| CCc1nc(-c2ccc(OC)cc2)n(-c2cncc(C(=O)NCCCCc3ccccc3)c2)n1 | 1620 |  |
| CCc1nc(-c2ccc(OC)cn2)n(-c2cccc(C(=O)NCCCCc3ccccc3)c2)n1 | 120 | IC50 [10]: 150 nM |
| COc1ccc(-c2nc(C)nn2-c2cccc(C(=O)NCCCc3ccc(Br)cc3)c2)cc1 | > 20000 |  |
| COc1ccc(-c2nc(C)nn2-c2cccc(C(=O)NCCc3ccc(Cl)cc3)c2)cc1 | 4360 | IC50 [10]: 9870 nM |
| CCc1nc(-c2cncc(C(=O)NCCCCc3ccccc3)c2)n(-c2ccc(OC)cc2)n1 | 1350 |  |
| CCc1nc(-c2ccc(OC(F)F)cc2)n(-c2cccc(C(=O)NCCCCc3ccccc3)c2)n1 | 830 |  |
